Laboratory results published in PMC4166900, “Covalent modification of a ten-residue cationic antimicrobial peptide with levofloxacin” (Frontiers in Chemistry, 2014).
Like-named read-outs stand apart in the source and are kept apart here. Marks after values point to notes of the source that are not given here. Peptide text beside a SMILES is read from it. * marks the point of attachment. Levofloxacinoyl = C[C@H]1COc2c(N3CCN(C)CC3)c(F)cc3c(=O)c(C(=O)*)cn1c23

Experiments:
[1] = tested on: E. coli (#25922); details: for EC50: read-out: EC50 (95% confidence interval), E. coli, resazurin read-out, triplicate
Description: (§4) Frozen enumerated aliquots of bacteria were thawed and diluted into sterile buffer to a bacterial concentration of 2 × 10^6 CFU/mL. Wells of a 96-well polypropylene microtiter plate (Greiner Bio-One) were charged with 50 μL aliquots of buffer solutions containing serially diluted peptide, conjugate, or drug followed by 50 μL aliquots of diluted bacterial cells. Assays for each compound were prepared in triplicate. Control wells were prepared where the peptide/conjugate/drug solution was replaced with an equal volume of buffer alone. Following addition of bacteria, the microtiter plates were incubated for 3 h at either 37°C (E. coli) or 30°C (B. cereus). […] Plates were then immediately placed in a SpectraMax Gemini EM plate-reading fluorometer for overnight monitoring of fluorescence (530 nmex/590 nmem) at either 37°C (E. coli) or 30°C (B. cereus) with intermittent shaking. Onset time of half maximal fluorescence (T0.5) observed for each well was computed using the microplate data analysis software. In order to determine bacterial survival, it was necessary to establish correlations between bacterial concentration (CFU/mL) and T0.5 values. Therefore, standard curve equations were generated in preliminary experiments using bacterial suspensions serially diluted (~10^6 CFU/mL—10^3 CFU/mL) in each of the three buffers used in the antibacterial assays.
(§5) (1) log(CFU/mLE.coli)=−2.00 × 10^−4(T0.5)+Yint
(§6) (3) Bacterial Survival=Smin+(Smax−Smin)/ (1+10^log(EC50)−log(PC)∗HS)
(§7) Assays were conducted under three different ionic strength (μ) buffer conditions in order to assess the effect salt concentration had on antibacterial effectiveness. The lowest ionic strength buffer used was 10 mM NaPO4, pH 7.4, which corresponded to 26 mM total ionic strength. […] Bacterial survival results were plotted against the log of the concentration of conjugate, peptide, or free drug. EC50 values for each assessed compound were calculated by fitting the survival data to equation 3, which models typical sigmoidal dose-response behavior using a variable Hill slope. An F test was used to assess statistical significance, with the alpha level set to 0.05.

[2] = tested on: B. cereus (#11778)
Description: as §4
(§8) (2) log(CFU/mLB.cereus)=−1.00 × 10^−4(T0.5)+Yint
as §6, §7

[3] = Distribution coefficient (1-octanol / 10 mM NaPO4 pH 7.4); details: for logD at 10 min: pH 7.4
Description: In these experiments, P4LC, Pep-4 or free LVFX dissolved in 100 μL of 10 mM NaPO4 (pH 7.4) buffer was combined with 100 μL of 1-Octanol in a 1.5 mL low binding polypropylene microcentrifuge tube (Corning). Each tube was vortexed for 10 min and the contained solvent allowed to settle. […] The maximal concentrations of Pep-4 and P4LC in the calibration curves were also established using amino acid analysis (UC Davis Genome Center Proteomics Core Facility). […] Indolicidin and melittin were used as reference peptides in these studies. […] The D7.4 values generated for P4LC, Pep-4, LVFX, indolicidin, and melittin were calculated (equation 5) based on their respective concentrations in the aqueous phase ([peptide]PO4buffer) of the water/octanol biphasic system and their concentrations in the initial stock solution ([peptide]total). Values are averaged from six replicates.
(5) logD7.4=log(([peptide]total−[peptide]PO4buffer)/([peptide]PO4buffer)) =log ([peptide]octanol/[peptide]PO4buffer)
The concentration ratios of each compound between the two liquid phases were used to establish distribution coefficients (D7.4). Indolicidin and melittin were used as reference peptides in these studies.

[4] = tested on: B. cereus (#11778); test: microbe, parasite or virus in culture; details: Bacillus cereus, 3 h
Description: as §4, §8, §6, §7

[5] = tested on: E. coli (#25922); test: microbe, parasite or virus in culture; details: Escherichia coli, 3 h, pH 7.4, read-out: EC50 (95% confidence interval), E. coli, resazurin read-out, triplicate
Description: as §4, §5, §6, §7

[6] = tested on: E. coli membranes; test: SYTOX green membrane perturbation assay; format: cell-based; details: 10 mM NaPO4 pH 7.4, 33 μM P4LC, 33 μM Pep-4, 126 μM Pep-4/LVFX, 93 μM LVFX, biological triplicates
Description: (§1) Enumerated frozen aliquots of E. coli and B. cereus cells were thawed and washed 3x with buffer (10 mM NaPO4, pH 7.4). The washed cells were diluted to a concentration of 4 × 10^7 CFU/mL in 10 mM NaPO4 (pH 7.4) buffer containing 5 μM SYTOX Green, and the resulting suspension then stored in the dark for ~20 min. The bacterial suspension was then distributed in 100 μL aliquots to wells of a black polypropylene microtiter plate (Greiner Bio-One). […] The fluorescence of each well was immediately monitored (without the lid) using a SpectraMax Gemini EM plate-reading fluorometer (485/520 nmem). […] A negative control containing only bacteria and SYTOX Green was used to determine background fluorescence, and maximal perturbation of the bacterial cell membranes was established using melittin. The fluorescence kinetics data sets were normalized by setting emitted fluorescence to 0 at t = 0 s and presenting fluorescence intensity values as a fraction of maximal fluorescence observed for melittin.
(§2) For membrane depolarization and perturbation experiments, fluorescence data was analyzed by comparing best-fit curves (GraphPad Prism). Fluorescence kinetic curves were fit to a polynomial regression model (equation 4) to allow for statistical comparison of the fluorescence data via an F test, with all four best-fit parameters used as criteria. […]

[7] = tested on: B. cereus membranes; test: SYTOX green membrane perturbation assay; format: cell-based; details: 10 mM NaPO4 pH 7.4, 33 μM P4LC, 33 μM Pep-4, 126 μM Pep-4/LVFX, 93 μM LVFX, melittin = maximal, biological triplicates
Description: as §1, §2

[8] = tested on: E. coli membranes; test: DiSC(3)5 membrane depolarization assay; format: cell-based; details: E. coli 2 × 10^7 CFU/mL; 10 mM NaPO4 pH 7.4; 33 μM P4LC and Pep-4, 126 μM Pep-4/LVFX, 93 μM LVFX; melittin 33 μM = maximal; monitored 30 min; triplicate
Description: (§3) Enumerated frozen aliquots of E. coli and B. cereus cells were thawed and washed 3x with buffer (10 mM NaPO4, pH 7.4). The washed cells were diluted in 10 mM NaPO4 buffer containing 10 ug/mL DiSC(3)5 to afford a concentration of 4 × 10^7 CFU/mL. Bacterial suspension was added to the wells of a black polypropylene microtiter plate (Greiner Bio-One) in 100 μL aliquots, and fluorescence was monitored (rt, with lid on) using a SpectraMax Gemini EM plate-reading fluorometer (622 nmex/ 670 nmem) until fluorescence quenching stabilized and maximal DiSC(3)5 uptake was achieved. […] The final concentrations of each assessed compound in the wells were 33 μM (P4LC and Pep-4), 126 μM (Pep-4/LVFX), and 93 μM (LVFX), while final bacterial concentrations were 2 × 10^7 CFU/mL. Assays were performed in triplicate for each compound assessed. […] The fluorescence kinetics data sets were normalized by setting emitted fluorescence to 0 at t = 0 s and presenting fluorescence intensity values as a fraction of maximal fluorescence observed for melittin.
as §2

[9] = tested on: B. cereus membranes; test: DiSC(3)5 membrane depolarization assay; format: cell-based; details: B. cereus 2 × 10^7 CFU/mL; 10 mM NaPO4 pH 7.4; 33 μM P4LC and Pep-4, 126 μM Pep-4/LVFX, 93 μM LVFX; melittin 33 μM = maximal; monitored 30 min; triplicate
Description: as §3, §2

[10] = ionic strength μ1 = 26 mM (10 mM NaPO4, pH 7.4), 3 h incubation at 37°C
[11] = ionic strength μ2 = 111 mM (10 mM NaPO4 : cation-adjusted PBS 1:1, pH 7.4), 3 h at 37°C
[12] = ionic strength μ3 = 167 mM (cation-adjusted PBS, pH 7.4), 3 h at 37°C, * = estimated, lower survival boundary set to 0
[13] = read-out: EC50 (95% confidence interval), B. cereus, ionic strength μ2 = 111 mM (10 mM NaPO4 : cation-adjusted PBS 1:1, pH 7.4), 3 h at 30°C, resazurin read-out, triplicate, * = estimated, lower survival boundary set to 0

For `N=C(N)NCCC[C@H](NC(=O)CNC(=O)[C@@H](N)CCCNC(=N)N)C(=O)N[C@@H](CCCNC(=N)N)C(=O)N[C@@H](CO)C(=O)N[C@@H](CO)C(=O)N[C@@H](CCCNC(=N)N)C(=O)N[C@@H](CCCNC(=N)N)C(=O)N[C@@H](CCCCN)C(=O)N[C@@H](CCCCN)C(N)=O` [Pep-4] (H-RGRRSSRRKK-NH2), the “EC50 (95% confidence interval)” value ([1]; #25922, 3 h, pH 7.4) was ~29.4 ^* (21.9–35.4)^* μM, the EC50 ([2]; #11778, 3 h, pH 7.4) was 27.1 nM and the logD at 10 min [3] was -2.57.

`C[C@H]1COc2c(N3CCN(C)CC3)c(F)cc3c(=O)c(C(=O)NCCCC[C@H](NC(=O)[C@H](CCCCNC(=O)c4cn5c6c(c(N7CCN(C)CC7)c(F)cc6c4=O)OC[C@@H]5C)NC(=O)[C@H](CCCNC(=N)N)NC(=O)[C@H](CCCNC(=N)N)NC(=O)[C@H](CO)NC(=O)[C@H](CO)NC(=O)[C@H](CCCNC(=N)N)NC(=O)[C@H](CCCNC(=N)N)NC(=O)CNC(=O)[C@H](CCCNC(=N)N)NC(=O)c4cn5c6c(c(N7CCN(C)CC7)c(F)cc6c4=O)OC[C@@H]5C)C(N)=O)cn1c23` [P4LC] (Levofloxacinoyl-RGRRSSRRK(Levofloxacinoyl)K(Levofloxacinoyl)-NH2) showed an EC50 [1, 10] of 16.7 nM, an EC50 [1, 11] of 1710 nM and an EC50 [1, 12] of 1510 nM. For the same molecule, the EC50 ([2]; read-out: EC50 (95% confidence interval), B. cereus, ionic strength μ1 = 26 mM (10 mM NaPO4, pH 7.4), 3 h incubation at 30°C, resazurin read-out, triplicate) was 21.8 nM, the EC50 [2, 13] was 2170 nM and the EC50 ([2]; read-out: EC50 (95% confidence interval), B. cereus, ionic strength μ3 = 167 mM (cation-adjusted PBS, pH 7.4), 3 h at 30°C, resazurin read-out, triplicate, * = estimated, lower survival boundary set to 0) was 40000 nM. The logD at 10 min [3] was -1.65.

`CC[C@H](C)[C@H](N)C(=O)N[C@@H](CC(C)C)C(=O)N1CCC[C@H]1C(=O)N[C@@H](Cc1c[nH]c2ccccc12)C(=O)N[C@@H](CCCCN)C(=O)N[C@@H](Cc1c[nH]c2ccccc12)C(=O)N1CCC[C@H]1C(=O)N[C@@H](Cc1c[nH]c2ccccc12)C(=O)N[C@@H](Cc1c[nH]c2ccccc12)C(=O)N1CCC[C@H]1C(=O)N[C@@H](Cc1c[nH]c2ccccc12)C(=O)N[C@@H](CCCN=C(N)N)C(=O)N[C@@H](CCCN=C(N)N)C(N)=O` [indolicidin] gave a logD at 10 min [3] of 2.3.

In the case of `CC[C@H](C)[C@H](NC(=O)CN)C(=O)NCC(=O)N[C@@H](C)C(=O)N[C@H](C(=O)N[C@@H](CC(C)C)C(=O)N[C@@H](CCCCN)C(=O)N[C@H](C(=O)N[C@@H](CC(C)C)C(=O)N[C@H](C(=O)N[C@H](C(=O)NCC(=O)N[C@@H](CC(C)C)C(=O)N1CCC[C@H]1C(=O)N[C@@H](C)C(=O)N[C@@H](CC(C)C)C(=O)N[C@H](C(=O)N[C@@H](CO)C(=O)N[C@@H](Cc1c[nH]c2ccccc12)C(=O)N[C@H](C(=O)N[C@@H](CCCCN)C(=O)N[C@@H](CCCNC(=N)N)C(=O)N[C@@H](CCCCN)C(=O)N[C@@H](CCCNC(=N)N)C(=O)N[C@@H](CCC(N)=O)C(=O)N[C@@H](CCC(N)=O)C(N)=O)[C@@H](C)CC)[C@@H](C)CC)[C@@H](C)O)[C@@H](C)O)C(C)C)C(C)C` [melittin, Melittin], the logD at 10 min [3] is reported as -0.46.

In the case of `C[C@H]1COc2c(N3CCN(C)CC3)c(F)cc3c(=O)c(C(=O)O)cn1c23` [LVFX, Levofloxacin], the EC50 [2, 13] is reported as 591 nM, the EC50 ([4]; pH 7.4, read-out: EC50 (95% confidence interval)) is reported as 981 nM and the EC50 ([4]; pH 7.4, read-out: EC50 (95% confidence interval), B. cereus, ionic strength μ1 = 26 mM (10 mM NaPO4, pH 7.4), 3 h incubation at 30°C, resazurin read-out, triplicate) is reported as 212 nM. The “D7.4 fold greater than P4LC” value ([3]; 1-octanol / 10 mM NaPO4 pH 7.4, ratio of D7.4 values) was “about 4.5 fold”, the EC50 [5, 10] was 2.81 nM and the EC50 [5, 11] was 2.23 nM. For the same molecule, the EC50 [5, 12] was 2.77 nM, the “mean maximal SYTOX Green fluorescence relative to melittin (membrane perturbation)” value [6] was “No increase in fluorescence” and the “SYTOX Green fluorescence increase relative to melittin (membrane perturbation)” value [7] was “No increase in fluorescence”. The “mean maximal DiSC(3)5 fluorescence relative to melittin (membrane depolarization)” value [8] was 8.4% and the “mean maximal DiSC(3)5 fluorescence relative to melittin (membrane depolarization)” value [9] was 2.5%.
